According to the NIST ThermoML archive (doi:10.1021/je060189f):
± gives the expanded uncertainty stated by the source.

Experiment: mn = molality of the nth substance listed, in mol/kg
Settings: 101 kPa, Liquid

O=C(O)CCCCC(=O)O [1,6-hexanedioic acid] + O
mass density (293.15 K, m1 = 0.00708): 998.48 ± 0.3 kg/m3
viscosity (293.15 K, m1 = 0.00708): 1.006 ± 0.013 mPa·s
mass density (293.15 K, m1 = 0.01399): 998.72 ± 0.3 kg/m3
viscosity (293.15 K, m1 = 0.01399): 1.008 ± 0.013 mPa·s
mass density (293.15 K, m1 = 0.02122): 999.01 ± 0.3 kg/m3
viscosity (293.15 K, m1 = 0.02122): 1.01 ± 0.013 mPa·s
mass density (293.15 K, m1 = 0.02857): 999.2 ± 0.3 kg/m3
viscosity (293.15 K, m1 = 0.02857): 1.014 ± 0.013 mPa·s
mass density (293.15 K, m1 = 0.05669): 1000.16 ± 0.3 kg/m3
viscosity (293.15 K, m1 = 0.05669): 1.023 ± 0.013 mPa·s
mass density (293.15 K, m1 = 0.08401): 1000.95 ± 0.3 kg/m3
viscosity (293.15 K, m1 = 0.08401): 1.035 ± 0.013 mPa·s
mass density (293.15 K, m1 = 0.1125): 1001.81 ± 0.31 kg/m3
viscosity (293.15 K, m1 = 0.1125): 1.047 ± 0.013 mPa·s
mass density (293.15 K, m1 = 0.143): 1002.78 ± 0.31 kg/m3
viscosity (293.15 K, m1 = 0.143): 1.06 ± 0.013 mPa·s
mass density (298.15 K, m1 = 0.01287): 997.49 ± 0.31 kg/m3
mass density (298.15 K, m1 = 0.0154): 997.52 ± 0.3 kg/m3
viscosity (298.15 K, m1 = 0.0154): 0.8959 ± 0.011 mPa·s
mass density (298.15 K, m1 = 0.0257): 997.83 ± 0.31 kg/m3
viscosity (298.15 K, m1 = 0.0257): 0.8985 ± 0.011 mPa·s
mass density (298.15 K, m1 = 0.02702): 997.91 ± 0.31 kg/m3
mass density (298.15 K, m1 = 0.03133): 998.11 ± 0.31 kg/m3
viscosity (298.15 K, m1 = 0.03133): 0.9017 ± 0.011 mPa·s
mass density (298.15 K, m1 = 0.03789): 998.27 ± 0.3 kg/m3
viscosity (298.15 K, m1 = 0.03789): 0.9028 ± 0.011 mPa·s
mass density (298.15 K, m1 = 0.04282): 998.42 ± 0.3 kg/m3
viscosity (298.15 K, m1 = 0.0455): 0.905 ± 0.011 mPa·s
viscosity (298.15 K, m1 = 0.05256): 0.9074 ± 0.012 mPa·s
mass density (298.15 K, m1 = 0.05544): 998.81 ± 0.3 kg/m3
viscosity (298.15 K, m1 = 0.05776): 0.9102 ± 0.012 mPa·s
viscosity (298.15 K, m1 = 0.06453): 0.9122 ± 0.012 mPa·s
mass density (298.15 K, m1 = 0.06825): 999.2 ± 0.3 kg/m3
mass density (298.15 K, m1 = 0.06989): 999.21 ± 0.3 kg/m3
viscosity (298.15 K, m1 = 0.06989): 0.9136 ± 0.012 mPa·s
mass density (298.15 K, m1 = 0.08417): 999.71 ± 0.3 kg/m3
viscosity (298.15 K, m1 = 0.08956): 0.9197 ± 0.012 mPa·s
mass density (298.15 K, m1 = 0.09767): 1000.15 ± 0.3 kg/m3
mass density (298.15 K, m1 = 0.1088): 1000.49 ± 0.3 kg/m3
mass density (298.15 K, m1 = 0.1136): 1000.66 ± 0.3 kg/m3
viscosity (298.15 K, m1 = 0.1136): 0.9285 ± 0.012 mPa·s
mass density (298.15 K, m1 = 0.1266): 1001.01 ± 0.3 kg/m3
mass density (298.15 K, m1 = 0.1377): 1001.33 ± 0.3 kg/m3
mass density (303.15 K, m1 = 0.01287): 996.07 ± 0.31 kg/m3
mass density (303.15 K, m1 = 0.0154): 996.08 ± 0.31 kg/m3
viscosity (303.15 K, m1 = 0.0154): 0.8022 ± 0.01 mPa·s
mass density (303.15 K, m1 = 0.0257): 996.56 ± 0.32 kg/m3
viscosity (303.15 K, m1 = 0.0257): 0.806 ± 0.01 mPa·s
mass density (303.15 K, m1 = 0.02702): 996.51 ± 0.31 kg/m3
mass density (303.15 K, m1 = 0.03133): 996.64 ± 0.31 kg/m3
viscosity (303.15 K, m1 = 0.03133): 0.8073 ± 0.01 mPa·s
mass density (303.15 K, m1 = 0.03789): 996.83 ± 0.31 kg/m3
viscosity (303.15 K, m1 = 0.03789): 0.8085 ± 0.01 mPa·s
mass density (303.15 K, m1 = 0.04282): 996.99 ± 0.31 kg/m3
viscosity (303.15 K, m1 = 0.0455): 0.8116 ± 0.01 mPa·s
viscosity (303.15 K, m1 = 0.05256): 0.8134 ± 0.01 mPa·s
mass density (303.15 K, m1 = 0.05544): 997.38 ± 0.31 kg/m3
viscosity (303.15 K, m1 = 0.05776): 0.8148 ± 0.011 mPa·s
viscosity (303.15 K, m1 = 0.06453): 0.8157 ± 0.011 mPa·s
mass density (303.15 K, m1 = 0.06825): 997.72 ± 0.31 kg/m3
mass density (303.15 K, m1 = 0.06989): 997.73 ± 0.31 kg/m3
viscosity (303.15 K, m1 = 0.06989): 0.8172 ± 0.011 mPa·s
mass density (303.15 K, m1 = 0.08417): 998.28 ± 0.31 kg/m3
viscosity (303.15 K, m1 = 0.08956): 0.8233 ± 0.011 mPa·s
mass density (303.15 K, m1 = 0.09767): 998.74 ± 0.3 kg/m3
mass density (303.15 K, m1 = 0.1088): 999.01 ± 0.3 kg/m3
mass density (303.15 K, m1 = 0.1136): 999.1 ± 0.3 kg/m3
viscosity (303.15 K, m1 = 0.1136): 0.8297 ± 0.011 mPa·s
mass density (303.15 K, m1 = 0.1266): 999.56 ± 0.3 kg/m3
mass density (303.15 K, m1 = 0.1377): 999.93 ± 0.3 kg/m3
mass density (308.15 K, m1 = 0.01287): 994.41 ± 0.32 kg/m3
mass density (308.15 K, m1 = 0.0154): 994.45 ± 0.31 kg/m3
viscosity (308.15 K, m1 = 0.0154): 0.7229 ± 0.0095 mPa·s
mass density (308.15 K, m1 = 0.0257): 994.79 ± 0.33 kg/m3
viscosity (308.15 K, m1 = 0.0257): 0.7255 ± 0.0096 mPa·s
mass density (308.15 K, m1 = 0.02702): 994.89 ± 0.31 kg/m3
mass density (308.15 K, m1 = 0.03133): 994.96 ± 0.31 kg/m3
viscosity (308.15 K, m1 = 0.03133): 0.7275 ± 0.0096 mPa·s
mass density (308.15 K, m1 = 0.03789): 995.17 ± 0.31 kg/m3
viscosity (308.15 K, m1 = 0.03789): 0.7285 ± 0.0096 mPa·s
mass density (308.15 K, m1 = 0.04282): 995.34 ± 0.31 kg/m3
viscosity (308.15 K, m1 = 0.0455): 0.7309 ± 0.0096 mPa·s
viscosity (308.15 K, m1 = 0.05256): 0.7323 ± 0.0096 mPa·s
mass density (308.15 K, m1 = 0.05544): 995.71 ± 0.31 kg/m3
viscosity (308.15 K, m1 = 0.05776): 0.7334 ± 0.0097 mPa·s
viscosity (308.15 K, m1 = 0.06453): 0.7353 ± 0.0097 mPa·s
mass density (308.15 K, m1 = 0.06825): 996.07 ± 0.31 kg/m3
mass density (308.15 K, m1 = 0.06989): 996.09 ± 0.31 kg/m3
viscosity (308.15 K, m1 = 0.06989): 0.7362 ± 0.0097 mPa·s
mass density (308.15 K, m1 = 0.08417): 996.55 ± 0.31 kg/m3
viscosity (308.15 K, m1 = 0.08956): 0.7406 ± 0.0097 mPa·s
mass density (308.15 K, m1 = 0.09767): 996.95 ± 0.31 kg/m3
mass density (308.15 K, m1 = 0.1088): 997.25 ± 0.31 kg/m3
mass density (308.15 K, m1 = 0.1136): 997.47 ± 0.31 kg/m3
viscosity (308.15 K, m1 = 0.1136): 0.7457 ± 0.0098 mPa·s
mass density (308.15 K, m1 = 0.1266): 997.79 ± 0.31 kg/m3
mass density (308.15 K, m1 = 0.1377): 998.16 ± 0.31 kg/m3
mass density (313.15 K, m1 = 0.01287): 992.54 ± 0.32 kg/m3
mass density (313.15 K, m1 = 0.0154): 992.58 ± 0.32 kg/m3
viscosity (313.15 K, m1 = 0.0154): 0.6559 ± 0.0088 mPa·s
mass density (313.15 K, m1 = 0.0257): 992.89 ± 0.33 kg/m3
viscosity (313.15 K, m1 = 0.0257): 0.6585 ± 0.0088 mPa·s
mass density (313.15 K, m1 = 0.02702): 993.01 ± 0.32 kg/m3
mass density (313.15 K, m1 = 0.03133): 993.19 ± 0.32 kg/m3
viscosity (313.15 K, m1 = 0.03133): 0.66 ± 0.0088 mPa·s
mass density (313.15 K, m1 = 0.03789): 993.29 ± 0.32 kg/m3
viscosity (313.15 K, m1 = 0.03789): 0.6612 ± 0.0089 mPa·s
mass density (313.15 K, m1 = 0.04282): 993.45 ± 0.32 kg/m3
viscosity (313.15 K, m1 = 0.0455): 0.6625 ± 0.0089 mPa·s
viscosity (313.15 K, m1 = 0.05256): 0.6639 ± 0.0089 mPa·s
mass density (313.15 K, m1 = 0.05544): 993.89 ± 0.32 kg/m3
viscosity (313.15 K, m1 = 0.05776): 0.6643 ± 0.0089 mPa·s
viscosity (313.15 K, m1 = 0.06453): 0.6663 ± 0.0089 mPa·s
mass density (313.15 K, m1 = 0.06825): 994.21 ± 0.32 kg/m3
mass density (313.15 K, m1 = 0.06989): 994.21 ± 0.32 kg/m3
viscosity (313.15 K, m1 = 0.06989): 0.6674 ± 0.0089 mPa·s
mass density (313.15 K, m1 = 0.08417): 994.66 ± 0.32 kg/m3
viscosity (313.15 K, m1 = 0.08956): 0.6708 ± 0.009 mPa·s
mass density (313.15 K, m1 = 0.09767): 995.03 ± 0.31 kg/m3
mass density (313.15 K, m1 = 0.1088): 995.33 ± 0.31 kg/m3
mass density (313.15 K, m1 = 0.1136): 995.47 ± 0.31 kg/m3
viscosity (313.15 K, m1 = 0.1136): 0.6754 ± 0.009 mPa·s
mass density (313.15 K, m1 = 0.1266): 995.88 ± 0.31 kg/m3
mass density (313.15 K, m1 = 0.1377): 996.19 ± 0.31 kg/m3
